Data reported in ChEMBL document CHEMBL5674860, “Optimized Dual-Glo Assay to identify co-culture-induced drug vulnerabilities in 3D CRC models” (2024).

Tests used:
Assay type in all cases: functional, Homo sapiens
Parameters in all cases: dose or concentration left out as unconfirmed
Colon cancer organoid [1] = experiment: Optimized Dual-Glo assay to identify co-culture induced drug vulnerabilities using donated chemical probes and chemogenomics kinase set in O06 CRC organoid and F06 CAF mono and co-culture. […] Cell viability is reported both mono and co-culture models.
Colon cancer organoid [2] = experiment: Optimized Dual-Glo assay to identify co-culture induced drug vulnerabilities using donated chemical probes and chemogenomics kinase set in O14 CRC organoid and F14 CAF mono and co-culture. […] Cell viability is reported both mono and co-culture models.
Colon cancer organoid [3] = experiment: Optimized Dual-Glo assay to identify co-culture induced drug vulnerabilities using donated chemical probes and chemogenomics kinase set in O20 CRC organoid and F20 CAF mono and co-culture. […] Cell viability is reported both mono and co-culture models.
[4] = Culture type Co-Culture, Transduced with Lucferase2-P2A-EGFP lentivirus
[5] = Culture type Co-Culture, Transduced with Renilla-dsRed lentivirus
[6] = Culture type Mono-Culture, Transduced with Lucferase2-P2A-EGFP lentivirus
[7] = Culture type Mono-Culture, Transduced with Renilla-dsRed lentivirus

Structure (SMILES)	Cell Viability (Colon cancer organoid [1]; [4])	Cell Viability (Colon cancer organoid [1]; [5])	Cell Viability (Colon cancer organoid [1]; [6])	Cell Viability (Colon cancer organoid [1]; [7])	Cell Viability (Colon cancer organoid [2]; [4])	Cell Viability (Colon cancer organoid [2]; [5])	Cell Viability (Colon cancer organoid [2]; [6])	Cell Viability (Colon cancer organoid [2]; [7])	Cell Viability (Colon cancer organoid [3]; [4])	Cell Viability (Colon cancer organoid [3]; [5])	Cell Viability (Colon cancer organoid [3]; [6])	Cell Viability (Colon cancer organoid [3]; [7])
Cc1sc2c(c1C)C(c1ccc(Cl)cc1)=N[C@@H](CC(=O)OC(C)(C)C)c1nnc(C)n1-2	24.0633%	301.325%	25.9077%	273.458%	21.0352%	390.207%	21.1376%	218.603%	11.0659%	145.881%	17.1066%	37.2064%
COc1cc2c(cc1-c1c(C)noc1C)ncc1[nH]c(=O)n([C@H](C)c3ccccn3)c12	43.5488%	325.273%	54.5625%	294.029%	36.9013%	317.138%	43.8564%	208.742%	26.0295%	172.215%	25.6738%	101.868%
CCCc1cc(C)[nH]c(=O)c1CNC(=O)c1cc(-c2ccnc(N3CCN(C)CC3)c2)cc2c1cnn2C(C)C	75.6598%	125.188%	109.33%	104.205%	90.4891%	115.464%	111.507%	115.721%	55.9892%	146.305%	86.0915%	120.133%
CN1CCN(c2ccc(-c3cccc(CN4CCOCC4)c3)cc2NC(=O)c2c[nH]c(=O)cc2C(F)(F)F)CC1	91.1397%	122.014%	99.8143%	114.421%	81.9859%	136.534%	110.455%	90.7791%	82.2903%	116.555%	112.073%	84.4992%
CC(C)Oc1ccc(-c2c[nH]cc2CN(C)CCN)cc1	47.5822%	178.793%	30.9197%	89.9891%	38.1359%	167.261%	29.2667%	88.3814%	47.7555%	252.195%	49.3092%	91.7276%
CNCCN1CCC(OCc2ccccc2)CC1	118.085%	144.179%	105.555%	98.6528%	36.6993%	161.59%	58.8026%	109.763%	15.2188%	211.667%	16.3767%	101.684%
Cn1c(=O)[nH]c2cc(N3C(=O)c4cccc5c(CCCO)ccc(c45)C3=O)ccc21	115.119%	110.623%	83.0583%	109.161%	89.1085%	114.749%	98.1543%	99.5703%	125.633%	89.8045%	109.771%	112.055%
CN(C)[C@H]1CN(C2CCc3cccc(F)c32)C[C@@H]1c1ccc(N2CCN(S(C)(=O)=O)CC2)cc1 (stereo partly drawn)	82.1891%	127.07%	99.7479%	137.803%	85.2853%	124.227%	108.249%	110.303%	31.8041%	145.189%	62.1102%	96.7919%
CC1(C)C(N)=Nc2cc(OCCCN3Cc4ccc(OCCc5cn(CC(=O)N6CCC(CCN7CCCC7)CC6)nn5)cc4C3)c(OCC3CC3)cc21	85.8179%	109.54%	61.6099%	146.021%	83.4014%	129.005%	107.567%	119.85%	94.7334%	161.052%	109.897%	111.947%
COc1ccccc1-c1cc(N2CCN(C(=O)OC(C)(C)C)CC2)c(N)nn1	99.4085%	102.712%	83.0998%	116.6%	99.785%	110.211%	110.079%	98.4172%	122.85%	160.936%	122.916%	117.085%
CN(C)C(=O)N1CC[C@H](NC2=Nc3cc(F)ccc3N(CC(F)F)c3ccc(Cl)cc32)C1	158.864%	159.783%	102.875%	125.077%	130.518%	98.5664%	108.387%	90.4728%	71.357%	98.2431%	112.934%	109.328%
CCn1c(-c2nc3cc(C(=O)N4CCCC(N)C4)ccc3n2C)cc2ccccc21.Cl (stereo not drawn)	115.054%	117.733%	118.281%	112.415%	85.5466%	126.887%	120.87%	100.943%	132.709%	136.72%	106.473%	96.2054%
Cc1cc(CN)cc(C)c1-c1ncn(C)c1-c1ccnc2cc(F)ccc12.Cl	105.057%	123.721%	137.219%	129.63%	87.6168%	103.014%	105.617%	97.8671%	143.957%	87.6481%	139.188%	92.4746%
COc1cc(OC)cc(-c2noc(N3CCN(C)C4(CCN(c5ccccc5)CC4)C3)n2)c1	67.7845%	115.277%	89.2845%	104.733%	94.7889%	110.973%	95.4006%	91.5093%	90.0996%	110.491%	105.262%	93.4153%
